Data: ChEMBL document CHEMBL3407467, “Recent advances in the chemistry and biology of pyridopyrimidines” (Eur J Med Chem, 2015)
Each block holds one compound with its values, some of them ahead of it.

Experiments:
Dihydrofolate reductase [1] = target: T1, Dihydrofolate reductase (Homo sapiens, UniProt P00374); assay: Inhibition of recombinant human DHFR expressed in Escherichia coli Rosetta Gami B (DE3) by spectrophotometric assay
T1 sequence (P00374 whole entry): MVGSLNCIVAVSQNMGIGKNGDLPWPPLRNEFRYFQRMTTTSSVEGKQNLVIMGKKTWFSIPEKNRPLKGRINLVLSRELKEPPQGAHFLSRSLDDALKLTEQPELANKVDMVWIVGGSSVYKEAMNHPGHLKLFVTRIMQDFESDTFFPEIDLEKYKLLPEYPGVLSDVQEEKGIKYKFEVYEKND

[2] = Inhibition of recombinant Pneumocystis jirovecii DHFR expressed in Escherichia coli Rosetta Gami B (DE3) by spectrophotometric assay
Dihydrofolate reductase [3] = target: T2, Dihydrofolate reductase (Pneumocystis carinii, UniProt P16184); assay: Inhibition of recombinant Pneumocystis carinii DHFR expressed in Escherichia coli Rosetta Gami B (DE3) by spectrophotometric assay
T2 sequence (P16184 whole entry): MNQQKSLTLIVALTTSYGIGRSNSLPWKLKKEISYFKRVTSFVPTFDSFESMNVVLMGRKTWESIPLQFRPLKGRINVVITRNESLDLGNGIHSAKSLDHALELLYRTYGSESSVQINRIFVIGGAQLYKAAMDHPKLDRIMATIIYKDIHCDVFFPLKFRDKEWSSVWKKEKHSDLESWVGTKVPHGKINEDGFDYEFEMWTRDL

Dihydrofolate reductase [4] = target: Dihydrofolate reductase (Pneumocystis carinii, UniProt P16184, K37Q); assay: Inhibition of Pneumocystis carinii DHFR K37Q mutant by spectrophotometric assay
Dihydrofolate reductase (Pneumocystis carinii, UniProt P16184, K37Q), sequence (P16184 whole entry K37Q): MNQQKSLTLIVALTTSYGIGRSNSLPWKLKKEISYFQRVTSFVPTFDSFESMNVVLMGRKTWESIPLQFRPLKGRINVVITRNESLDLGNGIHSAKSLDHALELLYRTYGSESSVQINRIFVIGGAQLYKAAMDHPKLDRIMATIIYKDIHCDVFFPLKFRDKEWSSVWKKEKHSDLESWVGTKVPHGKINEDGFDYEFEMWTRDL

[5] = Inhibition of Pneumocystis carinii DHFR K37Q/F69N mutant by spectrophotometric assay
[6] = Inhibition of human DHFR mutant by spectrophotometric assay
[7] = Inhibition of Pneumocystis jirovecii DHFR
[8] = target: Receptor tyrosine-protein kinase erbB-2 (Homo sapiens, UniProt P04626); assay: Inhibition of ErbB-2 intracellular domain (unknown origin) purified from a baculovirus expression system using Biotin-(amino hexonoic acid)-EEEEYFELVAKKK-CONH2 as substrate after 10 mins by scintillation counting in presence of [gamma-33P]ATP
Receptor tyrosine-protein kinase erbB-2, sequence (P04626 whole entry, the tested form may be a part): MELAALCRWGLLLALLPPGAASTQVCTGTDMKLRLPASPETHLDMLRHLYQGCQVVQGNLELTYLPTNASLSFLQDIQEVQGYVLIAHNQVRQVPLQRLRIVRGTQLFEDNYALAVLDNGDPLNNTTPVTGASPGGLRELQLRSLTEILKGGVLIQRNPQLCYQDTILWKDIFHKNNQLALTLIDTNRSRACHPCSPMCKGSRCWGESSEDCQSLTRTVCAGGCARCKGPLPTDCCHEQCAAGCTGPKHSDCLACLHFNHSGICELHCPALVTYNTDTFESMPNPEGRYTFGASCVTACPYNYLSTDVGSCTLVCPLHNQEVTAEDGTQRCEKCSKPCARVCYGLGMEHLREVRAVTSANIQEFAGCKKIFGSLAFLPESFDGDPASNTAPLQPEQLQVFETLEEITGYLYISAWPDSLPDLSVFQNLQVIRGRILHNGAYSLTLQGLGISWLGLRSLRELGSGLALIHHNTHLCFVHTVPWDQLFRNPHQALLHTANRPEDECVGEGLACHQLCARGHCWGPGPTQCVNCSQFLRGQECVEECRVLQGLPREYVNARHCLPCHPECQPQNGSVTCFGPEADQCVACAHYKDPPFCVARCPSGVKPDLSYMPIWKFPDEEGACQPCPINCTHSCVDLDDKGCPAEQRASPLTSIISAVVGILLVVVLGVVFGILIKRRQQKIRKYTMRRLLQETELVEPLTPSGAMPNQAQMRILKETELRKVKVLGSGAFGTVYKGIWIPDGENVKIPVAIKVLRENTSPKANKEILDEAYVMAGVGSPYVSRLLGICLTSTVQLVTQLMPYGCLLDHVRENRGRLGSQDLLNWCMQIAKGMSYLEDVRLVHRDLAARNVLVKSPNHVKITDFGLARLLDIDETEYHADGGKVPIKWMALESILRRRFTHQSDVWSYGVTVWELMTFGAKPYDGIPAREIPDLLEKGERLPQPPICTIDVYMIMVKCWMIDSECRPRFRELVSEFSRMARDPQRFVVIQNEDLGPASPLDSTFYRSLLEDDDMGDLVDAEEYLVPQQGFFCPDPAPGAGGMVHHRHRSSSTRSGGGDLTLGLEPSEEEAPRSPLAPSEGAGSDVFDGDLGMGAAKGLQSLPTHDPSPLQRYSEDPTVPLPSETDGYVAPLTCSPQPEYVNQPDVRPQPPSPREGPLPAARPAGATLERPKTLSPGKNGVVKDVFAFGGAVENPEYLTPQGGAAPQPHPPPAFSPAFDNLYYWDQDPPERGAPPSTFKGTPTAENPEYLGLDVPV

Adenosine kinase = Adenosine kinase (Homo sapiens, UniProt P55263); assay: Inhibition of adenosine kinase (unknown origin)
Adenosine kinase, sequence (P55263 whole entry): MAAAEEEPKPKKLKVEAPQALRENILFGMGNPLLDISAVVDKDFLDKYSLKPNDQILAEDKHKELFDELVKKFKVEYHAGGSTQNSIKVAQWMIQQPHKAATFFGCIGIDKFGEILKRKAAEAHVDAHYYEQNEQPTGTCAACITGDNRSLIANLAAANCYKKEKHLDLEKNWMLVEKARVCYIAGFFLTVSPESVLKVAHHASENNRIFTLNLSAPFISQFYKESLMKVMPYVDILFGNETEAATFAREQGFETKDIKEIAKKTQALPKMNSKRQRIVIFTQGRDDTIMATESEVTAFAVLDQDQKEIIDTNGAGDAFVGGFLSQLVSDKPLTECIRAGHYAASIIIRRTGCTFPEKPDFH

Compound: Nc1nc(N)c2cc(CNc3cc(Cl)ccc3Cl)cnc2n1
Ki (Dihydrofolate reductase [1]): 24.4 nM | Ki [2]: 2.7 nM | Ki (Dihydrofolate reductase [3]): 6.3 nM | Ki (Dihydrofolate reductase [4]): 0.26 nM | Ki [5]: 0.71 nM | Ki [6]: 0.58 nM

Compound: CN(c1cc(F)c(F)c(F)c1)c1cnc2nc(N)nc(N)c2c1
IC50 [7]: 4.2 nM

Compound: [O-][S+]1CCN(Cc2ccc(-c3cc4c(Nc5ccc(OCc6cccc(F)c6)cc5)ncnc4cn3)o2)CC1
IC50 [8]: 21 nM

Compound: Nc1ncnc2nc(-c3ccc(N4CCOCC4)nc3)cc(-c3cccc(Br)c3)c12
IC50 (Adenosine kinase): 2 nM

Compound: CN(C)c1cc2c(Nc3ccc4c(cnn4Cc4ccccc4)c3)ncnc2cn1 [GW282974X]
IC50 [8]: 16 nM

Second part, the compound after the results:

IC50 [8]: 30 nM
Compound: CN(CCO)c1cc2c(Nc3ccc4c(cnn4Cc4ccccc4)c3)ncnc2cn1

IC50 [8]: 26 nM
Compound: CS(=O)(=O)CCNCc1ccc(-c2cc3c(Nc4ccc(OCc5ccccc5)cc4)ncnc3cn2)o1
